Converted amounts (≈) assume the structure as drawn.
Columns and labels:
[1] = Interconversion experiments: competitive slurries (Example 2, Table 6); assay type: physicochemical; conditions: Forms A and G vs Form B, ethyl acetate, ambient and approximately 50° C.
Protocol: A solution of Compound 3 and solvent/solvent system of interest was prepared. Solids persisted in solution. The samples were placed onto a stir plate at ambient (RT) or elevated (ET) temperatures. The samples were monitored to ensure that solids persisted during the slurry process. The solids were collected via vacuum filtration and dried under ambient conditions. […] At ambient temperature, Forms B and M are both present after almost a week of slurrying.

Grinding study = assay type: physicochemical; conditions: pestle and mortar
Protocol: 10 mg of the appropriate Compound 3 material (detailed in Table 28) was weighed into separate HPLC vials. The solids were then ground using a pestle and mortar. Resulting materials were analyzed by XRPD (FIG. 47). From samples where mixtures of forms were used, mixtures of forms were recovered. Where all 3 forms were used, Form A was not returned, although it is possible that the already small particle size of Form A was reduced further by grinding and therefore not detected by XRPD analysis.

[2] = Enabling form study: solubility from RT slurry in solvents (Table 2); assay type: physicochemical; conditions: organic solvent or mixture, thermodynamic from solid
Protocol: A solution of Compound 3 and solvent/solvent system of interest was prepared. Solids persisted in solution. The samples were placed onto a stir plate at ambient (RT) or elevated (ET) temperatures. The samples were monitored to ensure that solids persisted during the slurry process. The solids were collected via vacuum filtration and dried under ambient conditions.
An enabling form study was also carried out (Table 2).

[3] = Solid state stress testing (temperature, humidity, storage, photostability); assay type: physicochemical
[4] = Solution stress testing (acid, base, oxidative degradation); assay type: physicochemical
[5] = pH experiments and SIF/SGF/FaSSIF/FeSSIF solubility (Examples 3 and 4); assay type: physicochemical
[6] = Caco2 permeability and efflux ratio; assay type: in vitro ADME; conditions: human, Caco-2; Caco2; read-out: Efflux ratio (B-A/A-B)
Caco2 = Caco2 permeability and efflux ratio; assay type: in vitro ADME; conditions: A-B
[7] = Dose number and BCS classification; assay type: physicochemical
[8] = Polymorph study: anti-solvent addition; assay type: physicochemical
Protocol: Anti-solvent additions were completed on saturated solutions of Compound 3 produced from temperature cycling experiments. Precipitation of solids was observed (before anti-solvent additions were completed) from selected solvent systems when storage under ambient conditions. Precipitated solids were analyzed by XRPD and re-dissolved using gentle heating and addition of minimal solvent. An appropriate anti-solvent was added to each saturated solution in 50μL aliquots until precipitation was observed or a total of 1 mL anti-solvent had been added. Samples where solids were precipitated were isolated using centrifuge filtration and analyzed by XRPD. […] Samples where solids had precipitated were isolated using centrifuge filtration and analyzed by XRPD (Table 20A and Table 20B).

Milling of Form A = assay type: physicochemical; conditions: 2 min milling (5000 RPM); initial and repeat runs
Protocol: Compound 3 Form A material was milled using a Precellys® Evolution SUPER Homogenizer. Approximately 50 mg of Compound 3 Form A was weighed into 2×plastic 2 mL bead mill vials and 5×2.4 […] metal beads were placed into each vial. Sample 1 was milled using the following: RPM=5000; Cycles=2×60 seconds; Pause=10 seconds (between cycles). Sample 2 was milled using the above method but 5×60 seconds cycles instead of2×60 seconds. After milling, a sub-sample was taken from each and analyzed by XRPD and PLM. The above procedure was repeated and the resulting samples were analyzed by XRPD and DSC analysis.

[9] = Compression of Form A (2.5 KN, 5.0 KN); assay type: physicochemical; conditions: initial and repeat
Protocol: Compound 3 Form A material was compressed using a specac press. Approximately 125 mg of Compound 3 Form A was weighed into a 20 mL glass vial. The material was then transferred into an IR die and pressed to 2.5 KN for approx. 5 seconds. The resulting material was (ground lightly to break the disk that was returned and) analyzed by XRPD and PLM. The material was then placed back into the die and pressed to 5.0 KN (for approx. 5 seconds). The resulting material was ground lightly to break the disk that was returned and analyzed by XRPD and PLM. The procedure detail was repeated, using separate batches of solid for 2.5 KN and 5.0 KN experiments. XRPD analysis and PLM analysis was completed on the material returned after pressing. All samples returned Form A material by XRPD and consisted of small birefringent particles with no clear morphology by PLM (FIG. 35A-FIG. 35C).

[10] = Storage stability of Compound 3 forms (80° C., 40° C./75% RH, 25° C./60% RH, ambient); assay type: physicochemical
[11] = 50% 2-Propanol / 50% Heptane (% v/v)
[12] = 70% 2-Propanol / 30% Heptane (% v/v)
[13] = 70% 2-Propanol / 30% Water (% v/v) aw = 0.8

Compound: CC(=O)c1nn(CC(=O)N2[C@H](C(=O)Nc3nc(Br)ccc3C)C[C@@]3(C)C[C@@H]23)c2ccc(-c3cnc(C)nc3)cc12 [Form B]
- Relative stability in competitive slurry [1]: more stable form
- Form change upon grinding (XRPD) (Grinding study): did not change form

Compound: CC(=O)c1nn(CC(=O)N2[C@H](C(=O)Nc3nc(Br)ccc3C)C[C@@]3(C)C[C@@H]23)c2ccc(-c3cnc(C)nc3)cc12 [Compound 3, (1R,3S,5R)-2-(2-(3-acetyl-5-(2-methylpyrimidin-5-yl)-1H-indazol-1-yl)acetyl)-N-(6-bromo-3-methylpyridin-2-yl)-5-methyl-2-azabicyclo[3.1.0]hexane-3-carboxamide]
- solubility ([2]; ethyl acetate, EtOAc): ~14500 µg/mL (≈ 24.1 mM)
- solubility ([2]; isopropanol, IPA): ~5600 µg/mL (≈ 9.29 mM)
- solubility ([2]; MTBE): ~1200 µg/mL (≈ 1.99 mM)
- solubility ([2]; Toluene): ~13600 µg/mL (≈ 22.6 mM)
- Solid State Stress Testing: Room Temperature storage [3]: No degradation
- Solid State Stress Testing: Humidity ([3]; 40° C./75% RH): No degradation
- Solid State Stress Testing: Elevated temperature ([3]; 105° C. - 24 hr): No degradation
- Solid State Stress Testing: Photostability ([3]; exposure to UV visible): No light senstitivity
- Solution stress testing: Acid degradation ([4]; 0.1N HCl): Degradation observed
- Solution stress testing: Base degradation ([4]; 0.1N NaOH): Degradation observed
- Solution stress testing: Oxidative degradation ([4]; H2O2): Not susceptible to oxidation
- pH Experiments (solubility) ([5]; 1.2 pH): 389.37 μg/mL
- pH Experiments: stability in the medium ([5]; 1.2 pH): degrades
- pH Experiments (solubility) ([5]; 4.0 pH): 56.68 μg/mL
- pH Experiments (solubility) ([5]; 6.0 pH): 54.60 μg/mL
- pH Experiments (solubility) ([5]; 7.4 pH): 53.41 μg/mL
- solubility ([5]; FaSSIF, read-out: FaSSIF solubility): 75.4 µg/mL (≈ 0.125 mM)
- solubility ([5]; FeSSIF, read-out: FeSSIF solubility): 153 µg/mL (≈ 0.254 mM)
- pH Experiments (solubility) ([5]; SGF pH = 1.6): 96.35 μg/mL
- pH Experiments (solubility) ([5]; SIF pH = 6.5): 80.77 μg/mL
- efflux ratio [6]: 2.2
- Caco2: A-B (Caco2): Caco2: A-B ~17 × 10^−6 cm/s
- BCS class [7]: BCS II compound
- Dose Number ([7]; for 100 mg dose): Dose Number for 100 mg dos 3-7
- Crystallization technique: Anti-solvent Additions ([8]; 1-Butanol, *solids that precipitated under ambient conditions, WC = weakly crystalline): Form A (WC) *
- XRPD analysis after re- dissolution and storage at 4° C. for ca. 48 hours ([8]; 1-Butanol, WC = weakly crystalline): WC Form A
- XRPD analysis after re- dissolution and storage at 4° C. for ca. 48 hours ([8]; 2-Propanol): Form A
- Crystallization technique: Anti-solvent Additions ([8]; 2-Propanol, *solids that precipitated under ambient conditions): Form A*
- Crystallization technique: Anti-solvent Additions ([8]; 40% Ethanol / 60% Water (% v/v) calc. aw = 0.7, *solids that precipitated under ambient conditions): Mixture L + M*
- Observation after re-dissolution and anti-solvent addition [8, 11]: Clear solution
- Observations after storage in the fridge for ca. 48 hours [8, 11]: Clear solution
- Crystallization technique: Anti-solvent Additions ([8]; 50% 2-Propanol / 50% Heptane (% v/v), *solids that precipitated under ambient conditions, WC = weakly crystalline): Form A (WC) *
- Crystallization technique: Anti-solvent Additions ([8]; 50% Ethanol / 50% Heptane (% v/v), *solids that precipitated under ambient conditions): Form A*
- XRPD analysis after re- dissolution and storage at 4° C. for ca. 48 hours ([8]; 50% Ethanol:50% Heptane (% v/v)): Form A
- Observation after re-dissolution and anti-solvent addition [8, 12]: Clear solution
- Observations after storage in the fridge for ca. 48 hours [8, 12]: Clear solution
- Observations after storage in the fridge for ca. 48 hours ([8]; 70% 2-Propanol / 30% Heptane (% v/v) re-prepared sample): Clear solution
- Crystallization technique: Anti-solvent Additions ([8]; 70% 2-Propanol / 30% Heptane (% v/v), *solids that precipitated under ambient conditions): Mixture L + M*
- Crystallization technique: Anti-solvent Additions [8, 13]: Clear solution
- Observations after storage in the fridge for ca. 48 hours [8, 13]: Clear solution
- XRPD analysis after re- dissolution and storage at 4° C. for ca. 48 hours ([8]; 95% 2-Propanol / 5% Heptane (% v/v)): Form A
- Crystallization technique: Anti-solvent Additions ([8]; 95% 2-Propanol / 5% Heptane (% v/v), *solids that precipitated under ambient conditions): Form A*
- Observations after storage in the fridge for ca. 48 hours ([8]; 95% Heptane / 5% 2-Propanol (% v/v)): Clear solution
- Crystallization technique: Anti-solvent Additions ([8]; 95% Methanol / 5% Water (% v/v) calc. aw = 0.2): Clear solution
- Observations after storage in the fridge for ca. 48 hours ([8]; 95% Methanol:5% Water (% v/v) calc. aw = 0.2): Clear solution
- XRPD analysis after re- dissolution and storage at 4° C. for ca. 48 hours ([8]; Acetone): Form A
- Crystallization technique: Anti-solvent Additions ([8]; Acetone, *solids that precipitated under ambient conditions): Form A*
- Observations after storage in the fridge for ca. 48 hours ([8]; Acetonitrile): Clear solution
- XRPD analysis after re- dissolution and storage at 4° C. for ca. 48 hours ([8]; Ethanol): Form A
- Crystallization technique: Anti-solvent Additions ([8]; Ethanol, *solids that precipitated under ambient conditions): Form A*
- Observations after storage in the fridge for ca. 48 hours ([8]; Ethyl Acetate (dry)): White solid
- XRPD analysis after re- dissolution and storage at 4° C. for ca. 48 hours ([8]; Ethyl Acetate (dry)): Amorphous
- Crystallization technique: Anti-solvent Additions ([8]; Ethyl Acetate (dry), *solids that precipitated under ambient conditions): Form A*
- Crystallization technique: Anti-solvent Additions ([8]; Methanol): Clear solution
- Observations after storage in the fridge for ca. 48 hours ([8]; Methanol): Clear solution
- Crystallization technique: Anti-solvent Additions ([8]; Methylethyl Ketone): Form A
- Crystallization technique: Anti-solvent Additions ([8]; Methylisobutyl Ketone): Form B
- Crystallization technique: Anti-solvent Additions ([8]; Tetrahydrofuran): Form A
- Crystallization technique: Anti-solvent Additions ([8]; Toluene): Amorphous
- Crystallization technique: Anti-solvent Additions ([8]; n-Heptane): Clear solution

Compound: CC(=O)c1nn(CC(=O)N2[C@H](C(=O)Nc3nc(Br)ccc3C)C[C@@]3(C)C[C@@H]23)c2ccc(-c3cnc(C)nc3)cc12 [Compound 3 Form A]
- Milling: XRPD (Milling of Form A): Amorphous
- Compression: XRPD ([9]; 2.5 KN): Form A
- Compression: XRPD ([9]; 5.0 KN): Form A
- 1 week stability: 25° C./60% RH XRPD (uncapped) ([10]; 1 week, WC = weakly crystalline): WC Form A
- Stability: form by XRPD after storage ([10]; 25° C./60% RH, uncapped vial): weakly crystalline Form A

Source: patent US11807627B2, “Morphic forms of complement factor D inhibitors” (priority 2018, dated 2023)
